Assays:
Rabbit skeletal myosin = assay: Skeletal muscle myosin II actin-activated ATPase assay; type: biochemical; conditions: 20 nM skeletal muscle myosin II; read-out: SKMMII KI
Procedure, shortened: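 Inhibitory constants come from a quadratic one-site fit of 16-point, triplicate dose-response data, highest compound concentration 50 uM. Rates are slopes of NADH fluorescence decline over 30 min, coupling ATP turnover of 20 nM rabbit skeletal myosin II with 10 μM actin and 1 mM ATP via PK/LDH, pH 7.0, 25 °C.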

Bovine cardiac myosin = Bovine cardiac myosin (Bos taurus (Bovine), UniProt Q9BE39); assay: Cardiac muscle myosin II actin-activated ATPase assay (NADH-coupled); type: biochemical; set-up: key to Ratio CMMII:NMII Ki/EC50: NMII-sel: no Ki value for cardiac myosin II could be determined; the compounds had no detectable inhibitory properties versus the cardiac myosin II; conditions: for Ki: 300 nM cardiac myosin, 10 μM actin, 25° C., read-out: CMMII KI; for Ratio CMMII:NMII Ki/EC50: cardiac myosin II Ki over nonmuscle myosin II EC50
Chain of Bovine cardiac myosin (Q9BE39 whole entry): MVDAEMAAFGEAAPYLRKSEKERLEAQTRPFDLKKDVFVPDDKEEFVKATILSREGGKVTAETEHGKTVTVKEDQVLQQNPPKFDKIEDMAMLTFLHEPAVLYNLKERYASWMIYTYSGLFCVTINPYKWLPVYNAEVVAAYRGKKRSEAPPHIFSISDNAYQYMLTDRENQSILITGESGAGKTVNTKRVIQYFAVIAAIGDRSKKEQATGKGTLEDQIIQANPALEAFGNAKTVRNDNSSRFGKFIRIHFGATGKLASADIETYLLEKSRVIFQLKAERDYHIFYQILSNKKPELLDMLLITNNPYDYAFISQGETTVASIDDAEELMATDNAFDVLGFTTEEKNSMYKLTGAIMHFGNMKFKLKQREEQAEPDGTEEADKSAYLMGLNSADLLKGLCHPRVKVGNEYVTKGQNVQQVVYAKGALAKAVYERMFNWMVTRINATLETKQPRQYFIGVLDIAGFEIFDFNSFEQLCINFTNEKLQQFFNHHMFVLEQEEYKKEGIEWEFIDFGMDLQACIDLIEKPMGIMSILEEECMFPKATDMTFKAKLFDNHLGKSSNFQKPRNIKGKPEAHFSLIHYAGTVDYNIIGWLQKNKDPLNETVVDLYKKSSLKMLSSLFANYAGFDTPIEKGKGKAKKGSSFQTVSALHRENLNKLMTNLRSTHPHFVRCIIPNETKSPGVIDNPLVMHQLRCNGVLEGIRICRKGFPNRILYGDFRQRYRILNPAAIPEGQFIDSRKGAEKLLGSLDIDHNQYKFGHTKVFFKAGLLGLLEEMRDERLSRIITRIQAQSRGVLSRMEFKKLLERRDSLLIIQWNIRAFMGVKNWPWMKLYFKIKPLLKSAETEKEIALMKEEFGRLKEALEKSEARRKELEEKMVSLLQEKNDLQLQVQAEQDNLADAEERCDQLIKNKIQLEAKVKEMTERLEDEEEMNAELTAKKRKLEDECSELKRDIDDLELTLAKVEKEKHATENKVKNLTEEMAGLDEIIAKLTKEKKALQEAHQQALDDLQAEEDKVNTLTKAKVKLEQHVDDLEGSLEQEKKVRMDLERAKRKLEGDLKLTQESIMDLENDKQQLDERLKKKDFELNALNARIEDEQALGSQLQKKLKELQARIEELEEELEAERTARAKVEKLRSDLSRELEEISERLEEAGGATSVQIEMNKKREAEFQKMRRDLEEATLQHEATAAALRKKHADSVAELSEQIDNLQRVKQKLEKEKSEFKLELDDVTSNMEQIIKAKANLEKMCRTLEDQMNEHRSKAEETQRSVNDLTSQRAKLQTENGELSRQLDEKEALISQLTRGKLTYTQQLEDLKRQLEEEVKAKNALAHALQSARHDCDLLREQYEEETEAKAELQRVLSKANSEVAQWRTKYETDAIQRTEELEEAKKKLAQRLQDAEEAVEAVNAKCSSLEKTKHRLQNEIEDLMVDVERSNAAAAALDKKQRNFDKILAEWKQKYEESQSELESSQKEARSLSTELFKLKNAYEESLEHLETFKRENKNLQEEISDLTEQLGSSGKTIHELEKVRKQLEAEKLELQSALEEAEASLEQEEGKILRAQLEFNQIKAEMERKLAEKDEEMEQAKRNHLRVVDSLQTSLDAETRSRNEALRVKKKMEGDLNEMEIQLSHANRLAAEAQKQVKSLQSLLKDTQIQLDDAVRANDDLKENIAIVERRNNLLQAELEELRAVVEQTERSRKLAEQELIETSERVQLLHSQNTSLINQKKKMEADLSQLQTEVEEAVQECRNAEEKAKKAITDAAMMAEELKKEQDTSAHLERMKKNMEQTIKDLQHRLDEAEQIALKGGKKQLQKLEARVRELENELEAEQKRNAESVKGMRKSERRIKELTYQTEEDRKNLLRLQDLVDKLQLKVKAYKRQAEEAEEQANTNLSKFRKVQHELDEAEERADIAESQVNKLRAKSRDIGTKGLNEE
Chain of Bovine cardiac myosin (P85100 whole entry partner): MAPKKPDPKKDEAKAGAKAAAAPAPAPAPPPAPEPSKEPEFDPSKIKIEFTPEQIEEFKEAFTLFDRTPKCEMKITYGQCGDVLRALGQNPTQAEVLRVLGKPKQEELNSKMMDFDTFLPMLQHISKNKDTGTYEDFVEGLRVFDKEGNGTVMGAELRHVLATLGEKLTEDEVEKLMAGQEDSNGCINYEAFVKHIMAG
Chain of Bovine cardiac myosin (Q3SZE5 whole entry partner): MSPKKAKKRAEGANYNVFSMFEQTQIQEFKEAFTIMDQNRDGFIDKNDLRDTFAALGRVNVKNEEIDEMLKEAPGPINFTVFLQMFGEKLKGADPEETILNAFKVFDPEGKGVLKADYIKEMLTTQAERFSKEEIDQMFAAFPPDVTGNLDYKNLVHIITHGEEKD
Procedure, shortened: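 Inhibitory constants came from a quadratic one-to-one binding fit of 16-point dose-responses (highest final 50 uM, triplicate). Rates were NADH-calibrated fluorescence slopes over 30 min at 25° C, with 300 nM bovine cardiac myosin, 10 μM actin and 1 mM ATP coupled through PK/LDH in pH 7.0 MOPS buffer.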

[1] = Photostability, percentage remaining undegraded under illumination or in the dark; conditions: for Photostability 4 hours: percentage remaining undegraded after 4 hours illumination; for Photostability 24 hours: percentage remaining undegraded after 24 hours illumination; for Photostability Dark (24 h): percentage remaining undegraded in the dark

SMILES | Ki (Rabbit skeletal myosin) | Ki (Bovine cardiac myosin) | Ratio CMMII:NMII Ki/EC50 (Bovine cardiac myosin) | Photostability 4 hours [1] | Photostability 24 hours [1] | Photostability Dark (24 h) [1]
Cc1cc2c(cc1C)C(=O)[C@]1(O)CCN(c3ccc4ncncc4c3)C1=N2 [BPN-0027228] | 4.6 µM | 300 µM | 10.7 | >99% | 89.1% | >99%
N#Cc1ccc(N2CC[C@@]3(O)C(=O)c4c(sc5c4CCCC5)N=C23)cc1 [BPN-0027236] | 5 µM |  | NMII-sel | >99% | 84.9% | >99%
Cc1cc(N2CC[C@@]3(O)C(=O)c4cc(C(F)(F)F)ccc4N=C23)on1 [BPN-0027237] | 6.7 µM | 50 µM | 4.5 | 79.8% | 15.8% | 82.7%
Cc1sc2c(c1C)C(=O)[C@]1(O)CCN(c3ccc(C#N)c(Cl)c3)C1=N2 [BPN-0027238] | 3.7 µM |  | NMII-sel | >99% | >99% | >99%
Cc1cc2c(cc1C)C(=O)[C@]1(O)CCN(c3ccc4nnccc4c3)C1=N2 [BPN-0027241] | 7.2 µM | 100 µM | 7.7 | 91.6% | 87.0% | 97.4%
COc1ccc2cc(N3CC[C@@]4(O)C(=O)c5cc(C)c(C)cc5N=C34)ccc2n1 [BPN-0027250] | 1 µM |  | NMII-sel | 45.8% | 2.7% | 70.1%
COc1ccc2cc(N3CC[C@@]4(O)C(=O)c5cc(C)ccc5N=C34)ccc2n1 [BPN-0027255] | 0.8 µM |  | NMII-sel | 82.4% | 42.2% | 98.3%
Cc1cc2c(s1)N=C1N(c3ccc(C#N)c(Cl)c3)CC[C@@]1(O)C2=O [BPN-0027257] | 4.2 µM | 40 µM | 6.8 | 97.0% | 78.0% | 97.4%
Cc1ccc2c(c1)C(=O)[C@]1(O)CCN(c3ccc4nc(C)ccc4c3)C1=N2 [BPN-0027289] | 1 µM | 50 µM | 29.4 | 91.9% | 26.3% | 97.0%
Cc1ccc2c(c1)C(=O)[C@]1(O)CCN(c3ccc4nccnc4c3)C1=N2 [BPN-0027330] | 4.2 µM | 80 µM | 8.0 | 92.7% | 64.6% | >99%
Cc1cc(N2CC[C@@]3(O)C(=O)c4cc(C)c(C(F)(F)F)cc4N=C23)on1 [BPN-0027346] | 2 µM | 33 µM | 6.9 | 97.7% | 98.7% | 98.1%
Cc1ccc2c(c1)C(=O)[C@]1(O)CCN(c3ccc4c(C)noc4c3)C1=N2 [BPN-0027374] | 0.82 µM |  | NMII-sel | 96.9% | 86.4% | >99%
Cc1sc2c(c1C)C(=O)[C@]1(O)CCN(c3ccc4ncccc4c3)C1=N2 [BPN-0027376] | 6.7 µM | 46 µM | 7.8 | 90.4% | 2.8% | 97.0%
Cc1ccc2c(c1)C(=O)[C@]1(O)CCN(c3ccc4nc(C#N)ccc4c3)C1=N2 [BPN-0027393] | 3.5 µM | 30 µM | 5.8 | 95.2% | 83.9% | 97.5%
Cc1ccc2c(c1)C(=O)[C@]1(O)CCN(c3ccc4nsnc4c3)C1=N2 [BPN-0027394] | 1.1 µM | 14 µM | 3.4 | 92.2% | 57.2% | 98.7%
Cc1ccc2c(c1)C(=O)[C@]1(O)CCN(c3ccn4nccc4c3)C1=N2 [BPN-0027396] | 1.1 µM | 9.5 µM | 5.3 | 85.5% | 23.5% | >99%
Cc1ccc2c(c1)C(=O)[C@]1(O)CCN(c3ccc4cncn4c3)C1=N2 [BPN-0027406] | 7.5 µM | 200 µM | 3.8 | 75.7% | 1.6% | >99%
Cc1ccc2c(c1)C(=O)[C@]1(O)CCN(c3cnc4sccc4c3)C1=N2 [BPN-0027410] | 1.6 µM | 25 µM | 7.4 | 91.5% | 41.8% | >99%
Cc1ccc2c(c1)C(=O)[C@]1(O)CCN(c3ccc4sc(C)nc4c3)C1=N2 [BPN-0027411] | 1.1 µM | 51 µM | 8.1 | 81.8% | 6.4% | 98.8%
Cc1ccc2c(c1)C(=O)[C@]1(O)CCN(c3ccc4c(c3)OCCN4)C1=N2 [BPN-0027412] | 2.7 µM | 21 µM | 3.6 | 90.8% | 67.7% | 95.5%
Cc1ccc2c(c1)C(=O)[C@]1(O)CCN(c3ccn4ncnc4c3)C1=N2 [BPN-0027441] | 12 µM | 230 µM | 4.6 | 97.2% | 71.4% | 91.8%
Cc1ccc2c(c1)C(=O)[C@]1(O)CCN(c3cc4ncccc4s3)C1=N2 [BPN-0027468] | 1.2 µM |  | NMII-sel | 83.3% | 77.5% | 98.3%
Cc1ccc2c(c1)C(=O)[C@]1(O)CCN(c3cc4cccnc4s3)C1=N2 [BPN-0027469] | 0.68 µM |  | NMII-sel | 58.8% | 44.3% | >99%
Cc1cc2c(cc1C)C(=O)[C@]1(O)CCN(c3ccn4nccc4c3)C1=N2 [BPN-0027488] | 0.9 µM |  | NMII-sel | 49.4% | 20.0% | 96.4%
Cc1cc2c(cc1C)C(=O)[C@]1(O)CCN(c3cnc4sccc4c3)C1=N2 [BPN-0027489] | 0.94 µM | 26 µM | 33.3 | 76.1% | 8.5% | >99%

— patent US20250163056A1, “NONMUSCLE MYOSIN II INHIBITORS” (The University of Florida Research Foundation, Inc., priority 2018, published 2025)
